Columns and labels:
HeLa T-Rex cells = assay: Gamma-H2AX In-Cell Western assay (doxorubicin-induced DNA damage); type: cell-based; settings: Homo sapiens, HeLa; 30 minutes pretreatment, then 1 μM doxorubicin for 2 hours; read-out: IC50, suppression of doxorubicin-induced γH2AX signal
Procedure: In-Cell Western analysis was carried out as follows. HeLa T-Rex cells were seeded at the cell density of 15 × 10^3 cells per well in black 96-well plates (Greiner Bio-one Vacuette, St Gallen, Switzerland). The day post-seeding, cells were pretreated with increasing concentrations of either ICRF-193, QAP 1 or vehicle (DMSO) for 30 minutes followed by a 2 hours treatment with 1 μM of doxorubicin, or were only treated with the same concentrations of ICRF-193, QAP 1 or vehicle (DMSO) for 2 hours. Treatments were done in triplicate. […] Finally, cells were washed 4 times with 50 μl per well of PBS containing 0.1% Tween-20 for 3 minutes, liquid was removed and plates were kept at 4°C until reading. γH2AX signals were read using the LI-COR Odyssey Infrared Imager with the Odyssey v1.1 software using the 800 nm channel. Blank values correspond to non-specific γH2AX signal detected in wells without primary antibody staining. […] The resulting values for each sample were normalized to the DNA quantity by measuring the corresponding TO-PRO-3 iodide signals. The TO-PRO-3 iodine signals were detected by using the 700 nm channel. The percentage of γH2AX signal was determined for each concentration of ICRF193 and QAP 1 with or without doxorubicin treatment by setting the value for the treatment with vehicle and 1 μM doxorubicin to 100%. […]

topoisomerase II alpha = topoisomerase II alpha (Homo sapiens, UniProt P11388); assay: DNA-dependent ATPase assay (malachite green); type: biochemical; set-up: screened in an ATPase assay using purified full length tagged human topoisomerase II alpha; made in house; host or cells: Sf21 insect cells, baculovirus (pFastBac1)
Sequence of topoisomerase II alpha (P11388 whole entry): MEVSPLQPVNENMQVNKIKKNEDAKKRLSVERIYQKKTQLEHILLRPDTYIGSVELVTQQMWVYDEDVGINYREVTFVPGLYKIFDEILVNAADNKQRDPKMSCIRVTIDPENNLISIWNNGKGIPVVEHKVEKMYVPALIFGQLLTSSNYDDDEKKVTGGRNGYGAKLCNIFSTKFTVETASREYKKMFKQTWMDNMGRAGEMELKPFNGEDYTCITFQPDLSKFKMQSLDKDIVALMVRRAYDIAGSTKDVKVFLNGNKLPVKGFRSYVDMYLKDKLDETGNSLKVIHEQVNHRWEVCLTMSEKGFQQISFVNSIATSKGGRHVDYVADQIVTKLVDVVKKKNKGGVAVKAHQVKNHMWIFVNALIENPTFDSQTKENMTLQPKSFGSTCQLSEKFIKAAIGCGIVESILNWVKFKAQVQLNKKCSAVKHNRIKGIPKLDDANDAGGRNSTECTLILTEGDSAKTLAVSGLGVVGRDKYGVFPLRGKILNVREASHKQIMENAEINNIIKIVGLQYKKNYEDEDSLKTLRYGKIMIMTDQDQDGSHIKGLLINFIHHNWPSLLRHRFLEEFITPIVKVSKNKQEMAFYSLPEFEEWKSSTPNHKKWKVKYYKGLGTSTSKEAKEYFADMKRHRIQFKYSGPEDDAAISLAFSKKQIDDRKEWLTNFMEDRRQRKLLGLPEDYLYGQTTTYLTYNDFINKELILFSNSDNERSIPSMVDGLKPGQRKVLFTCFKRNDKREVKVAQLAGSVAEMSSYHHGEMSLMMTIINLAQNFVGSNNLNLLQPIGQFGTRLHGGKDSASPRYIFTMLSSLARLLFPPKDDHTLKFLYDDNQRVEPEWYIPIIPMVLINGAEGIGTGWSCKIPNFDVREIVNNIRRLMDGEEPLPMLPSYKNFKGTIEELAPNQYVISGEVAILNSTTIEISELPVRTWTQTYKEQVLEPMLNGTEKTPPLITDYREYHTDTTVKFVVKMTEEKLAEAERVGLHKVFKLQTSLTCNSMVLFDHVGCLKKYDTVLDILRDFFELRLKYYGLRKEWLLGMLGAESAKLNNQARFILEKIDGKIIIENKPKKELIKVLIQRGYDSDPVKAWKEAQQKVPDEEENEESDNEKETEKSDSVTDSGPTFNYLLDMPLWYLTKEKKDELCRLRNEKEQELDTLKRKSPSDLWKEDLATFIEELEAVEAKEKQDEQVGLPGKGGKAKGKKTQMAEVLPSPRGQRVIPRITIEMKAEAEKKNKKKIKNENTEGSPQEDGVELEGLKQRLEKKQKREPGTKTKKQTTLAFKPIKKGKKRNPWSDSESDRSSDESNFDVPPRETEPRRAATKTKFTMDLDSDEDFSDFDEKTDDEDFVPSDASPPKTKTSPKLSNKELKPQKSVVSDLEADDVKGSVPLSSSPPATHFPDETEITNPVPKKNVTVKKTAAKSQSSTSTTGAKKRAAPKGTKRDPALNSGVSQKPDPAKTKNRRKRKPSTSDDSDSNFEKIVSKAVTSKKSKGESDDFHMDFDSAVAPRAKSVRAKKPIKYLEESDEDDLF
Procedure: DNA-dependent ATP hydrolysis of human topoisomerase II α was monitored by measuring the production of inorganic phosphate using acidic molybdate and malachite green. Specific ATPase activity of every batch was tested in a time-course to determine optimal incubation times and enzyme concentrations within the linear range of the assay. Reactions thus contained 10 – 40 nM topoisomerase II (dimer concentration) in reaction buffer (10 mM Tris HCl pH 7.5, 175 mM KCl, 0.1 mM EDTA, 5 mM MgCl2, 2 mM DTT, 2.5% glycerol and 1.7 nM supercoiled pUC18). The specific activity of the human topoisomerase II α enzyme measured in the ATPase assay was 0.24 μmol PO4·min^-1·mg^-1. […] Compounds at the indicated concentrations were added as serial dilutions prepared in DMSO and preincubated for 10 minutes at 37°C on an orbital shaker. Reactions were started by the addition of 400 μM ATP (Sigma, catalog number A2383) and allowed to proceed for 30 minutes. Reactions were terminated by the addition of 200 μl malachite green reagent and the OD was read immediately at 630 nm on a SpectraMax Plus microtiter plate reader using SoftMax Pro software (Molecular Devices). For kinetic analysis, reactions were carried out in duplicate as described above either in the presence of vehicle (DMSO) or QAP 1. Following a preincubation for 5 minutes, ATP was added at the indicated concentrations to start the reactions, which were allowed to proceed for 17 minutes before stopping and reading as above. From these values the OD values obtained at each respective ATP concentration without enzyme were subtracted for background correction. […] A compromise was found by carrying out the competition experiments with a single concentration of the inhibitor that gave a good inhibition of enzyme activity while keeping a measurable signal. The equations used to fit these experiments are: […]
Each competition experiment was fitted (Grafit version 5.04 – Erithacus Software) with these 3 equations and the models that gave unrealistic inhibition constants (above 10 mM) and/or large standard errors (similar to the value of the fitted parameter) were rejected. Then, the F-test was carried out to identify the best fitting model. An alternative method was used to determine the mode of action of the inhibitor. Dose-response experiments were carried out at different ATP concentrations and the corresponding IC50s determined. According to the Cheng-Prusoff equation for linear competitive inhibition: […]
The IC50 of a competitive inhibitive inhibitor should increase in a linear fashion with the concentration of ATP. The measured IC50s were then plotted in function of the ATP concentrations and linear regression analyses were carried out. […] Mean Km and Vmax values were calculated from two independent experiments.

For `CCc1nc2nc(Nc3ccc4nc(OCCN5CCOCC5)ccc4c3)nc(NC(C)(C)C)c2[nH]1` [QAP 1], the IC50 (HeLa T-Rex cells) was roughly 1100 nM, the IC50 (topoisomerase II alpha; full length tagged human topoisomerase II alpha, 400 μM ATP) was 128 ± 21 nM and the “mode of inhibition (kinetic analysis, F-test)” value (topoisomerase II alpha; non-linear regression, competitive vs uncompetitive vs mixed models) was “ATP-competitive inhibitor”.

— PMC2628638, “Catalytic inhibition of topoisomerase II by a novel rationally designed ATP-competitive purine analogue” (BMC Chemical Biology, 2009)
